Results: publication PMC8625065 (Molecules, 2021)
Structures can show the parent of a compound that is named as a salt. Marks after values point to notes of the source that are not given here.

How the values were obtained:
[1] = tested on: poly (dAdT)2 (DNA, polymer) AT; assay: fluorescence titration, Scatchard; settings: Na+ (sodium cacodylate, I = 0.05 M); sodium cacodylate buffer pH 7.0, 25 °C; polynucleotide concentration as phosphates; per base
[2] = tested on: poly (dAdT)2 (DNA, polymer) AT; assay: UV thermal melting, 260 nm; settings: Na+ (sodium cacodylate, I = 0.05 M); sodium cacodylate buffer pH 7
[3] = tested on: poly A-poly U (RNA, polymer) A/U; assay: fluorescence titration, Scatchard; settings: Na+ (sodium cacodylate, I = 0.05 M); sodium cacodylate buffer pH 7.0, 25 °C; polynucleotide concentration as phosphates; per base
[4] = tested on: SW620 (colorectal adenocarcinoma, metastatic); assay: MTT proliferation assay, 72 h; assay type: cell-based, human; settings: for IC50: Homo sapiens, SW-620, SW620 cells, MTT, 72 h
Experimental: (§1) The cell lines HeLa (cervical carcinoma), SW620 (colorectal adenocarcinoma, metastatic), A549 (lung adenocarcinoma), HepG2 (hepatocellular carcinoma) and HFF (human foreskin fibroblasts) were cultured as monolayers and maintained in Dulbecco’s modified Eagle medium (DMEM), supplemented with 10% fetal bovine serum (FBS), 2mM L-glutamine, 100 U/mL penicillin and 100 μg/mL streptomycin in a humidified atmosphere with 5% CO2 at 37 °C.
(§2) Cells were seeded onto 96-well microtiter plates at a seeding density of 3000 cells/well for carcinoma cell lines, and 5000 cells/well for normal human fibroblasts. The next day, cells were treated with test agents at five different concentrations (0.01–100 µM) and further incubated for 72 h. […] Following 72 h incubation, the MTT assay was performed and measured absorbances were transformed into percentage of cell growth as described previously. Results were obtained from three independent experiments.

[5] = tested on: HepG2 (hepatocellular carcinoma); assay: MTT proliferation assay, 72 h; assay type: cell-based, human; settings: for IC50: Homo sapiens, HepG2 cells, MTT, 72 h
Experimental: as §1, §2

[6] = tested on: HeLa (cervical carcinoma); assay: MTT proliferation assay, 72 h; assay type: cell-based, human; settings: for IC50: Homo sapiens, HeLa cells, MTT, 72 h
Experimental: as §1, §2

p(dAdT)2 (AT-DNA) = assay: Fluorimetric titration, Scatchard processing; assay type: binding; settings: p(dAdT)2, pH 7.0, sodium cacodylate buffer, I = 0.05 mol dm^-3
Experimental: (§3) Compound solutions were used for measurements in aqueous buffer (pH = 7, sodium cacodylate buffer, I = 0.05 mol dm^−3). Polynucleotides were purchased as noted: poly A-poly U, poly (dAdT)2 and calf thymus (ct)DNA (Sigma-Aldrich). Polynucleotides were dissolved in Na-cacodylate buffer, I = 0.05 mol dm^−3, pH = 7. The calf thymus ctDNA was additionally sonicated and filtered through a […]. Polynucleotide concentration was determined spectroscopically as the concentration of phosphates.
(§4) Fluorescence spectra were recorded on a Varian Cary Eclipse spectrophotometer at 25 °C using appropriate 1cm path quartz cuvettes. Fluorometric experiments were performed at pH = 7 (I = 0.05 mol dm^−3, sodium cacodylate buffer) by adding portions of polynucleotide solution into the solution of the studied compound. In fluorometric experiments, an excitation wavelength of λexc ≥ 300 nm was used to avoid the inner filter effect caused due to increasing absorbance of the polynucleotide. Emissions were determined in the range λem = 300–600 nm. Values for Ks obtained by processing titration data using the Scatchard equation [40], in most titrations have satisfactory correlation coefficients (≥0.98).

ctDNA (calf thymus DNA) = assay: Fluorimetric titration, Scatchard processing; assay type: binding; settings: pH 7.0, sodium cacodylate buffer, I = 0.05 mol dm^-3
Experimental: as §3, §4

poly A-poly U (AU-RNA) = assay: Fluorimetric titration, Scatchard processing; assay type: binding; settings: pH 7.0, sodium cacodylate buffer, I = 0.05 mol dm^-3
Experimental: as §3, §4

ctDNA = assay: Thermal melting experiment; assay type: binding, calf; settings: r = [compound]/[polynucleotide] = 0.3, pH 7.0, error ±0.5 °C
Experimental: (§5) Compound solutions were used for measurements in aqueous buffer (pH = 7, sodium cacodylate buffer, I = 0.05 mol dm^−3). Polynucleotides were purchased as noted: poly A-poly U, poly (dAdT)2 and calf thymus (ct)DNA (Sigma-Aldrich). Polynucleotides were dissolved in Na-cacodylate buffer, I = 0.05 mol dm^−3, pH = 7. The calf thymus ctDNA was additionally sonicated and filtered through a […]. Polynucleotide concentration was determined spectroscopically as the concentration of phosphates. UV–Vis spectra were recorded on a Varian Cary 100 Bio spectrophotometer using 1cm path quartz cuvettes. Calibration experiments were performed at 25 °C and pH = 7 (I = 0.05 mol dm^−3, sodium cacodylate buffer). Thermal melting curves for DNA and their complexes with studied compounds were determined as previously described by following the absorption change at 260 nm as a function of temperature. The absorbance of the ligands was subtracted from every curve and the absorbance scale was normalized. Tm values are the midpoints of the transition curves determined from the maximum of the first derivative and checked graphically by the tangent method. The ΔTm values were calculated by subtracting the Tm of the free nucleic acid from the Tm of the complex. Every ΔTm value reported here was the average of at least two measurements. The error in ΔTm is ±0.5 °C.

poly(dAdT)2 = assay: Thermal melting experiment; assay type: binding; settings: poly(dAdT)2, r = 0.3, pH 7.0; error ±0.5 °C
Experimental: as §5

poly A-poly U = assay: Thermal melting experiment; assay type: binding; settings: r = 0.3, pH 7.0, error ±0.5 °C
Experimental: as §5

[7] = tested on: poly A-poly U (RNA, polymer) A/U; assay: UV thermal melting, 260 nm; settings: Na+ (sodium cacodylate, I = 0.05 M); sodium cacodylate buffer pH 7
[8] = tested on: A549 (lung adenocarcinoma); assay: MTT proliferation assay, 72 h; assay type: cell-based; settings: Homo sapiens, A549 cells
Experimental: as §1, §2

[9] = tested on: HFF (human foreskin fibroblasts); assay: MTT proliferation assay, 72 h, non-tumor cells; assay type: cell-based; set-up: selectivity index (SI): reference not given here; settings: for IC50: Homo sapiens, Fibroblast, non-tumor HFF fibroblasts, MTT, 72 h
Experimental: as §1, §2

[10] = tested on: poly A-poly U (RNA, polymer) A/U; assay: CD titration; settings: Na+ (sodium cacodylate, I = 0.05 M); sodium cacodylate buffer pH 7, 25 °C; weak negative ICD near 300 nm, intercalation
[11] = Solubility of stock solution in water; assay type: physicochemical; settings: c = 2 × 10^−3 mol dm^−3
From the text: Based upon the antiproliferative activity, several compounds from a series of novel amidine- and amidoxime-substituted heterocycles (5, 6, 8–11 and 20) were selected for the study with calf thymus DNA (ctDNA), alternating AT-DNA (poly (dAdT)2) and AU-RNA (poly A-poly U).

Row | SMILES | logKs [1] | binding [2] | logKs [3] | IC50 [4] [µM] | IC50 [5] [µM] | IC50 [6] [µM] | logKs (p(dAdT)2 (AT-DNA)) | logKs (poly A-poly U (AU-RNA)) | melting point [°C] | IC50 [8] [µM] | logKs (ctDNA (calf thymus DNA)) | ΔTm (ctDNA) [°C] | ΔTm (poly(dAdT)2) [°C] | ΔTm (poly A-poly U) [°C] | IC50 [9] [nM] | also measured
1 | c1cc(C2=NCCN2)c2ccn(Cc3cn(-c4ccc(C5=NCCN5)cc4)nn3)c2c1 | 6.6 | yes | 4.2 |  |  |  |  |  |  |  |  |  |  |  |  | 
2 | Cl.Cl.c1cc(C2=NCCN2)ccc1OCc1cn(-c2ccc(C3=NCCN3)cc2)nn1 [Compound 5, 1-(4-(4,5-Dihydro-1H-imidazol-2-yl)-phenyl]-4-((4-(4,5-dihydro-1H-imidazol-2-yl)phenyloxy)methyl]-1H-1,2,3-triazole dihydrochloride] | 6.5 | yes | 7.0 | 0.22 | 0.64 | 0.8 | 6.5 | 7.0 | > 250 | 15.7 | 5.7 | 5 | 14 | 2 | < 10 | binding [7]: yes
3 | c1cc(C2=NCCN2)c2ccn(Cc3cn(-c4ccc(C5=NCCN5)cc4)nn3)c2c1 [Compound 6, 1-((1-(4-(Dihydro-1H-imidazol-2-yl)phenyl)-1H-1,2,3-triazol-4-yl)methyl)-4-(dihydro-1H-imidazol-2-yl)-1H-indole dihydrochloride] |  |  |  | 18 | 2.37 | 13.5 | 6.6 | 4.2 |  | 49.9 | 5.0 | 2 | 6 | 0 | < 10 | 
4 | Cl.O=c1cc(OCc2cn(-c3ccc(C4=NCCN4)cc3)nn2)c2ccccc2o1 [Compound 10, 4-((1-(4-(4,5-Dihydro-1H-imidazol-2-yl)phenyl)-1H-1,2,3-triazol-4-yl)methyloxy)-coumarin hydrochloride] | 6.7 | yes |  | 1.75 | 3.55 | 1.9 | 6.7 |  |  | 7.86 |  | 0 | 2 | 0 | < 10 | binding [10]: yes
5 | N/C(=N\O)c1ccc(-n2cc(COc3cccc4ccc(/C(N)=N/O)nc34)nn2)cc1 [Compound 20, (Z)-N′-Hydroxy-8-((1-(4-((Z)-N′-hydroxycarbamimidoyl)phenyl)-1H-1,2,3-triazol-4-yl)methoxy)quinoline-2-carboximidamide] |  |  |  | 7.24 | 51.3 | 7.15 | 4.7 ^d | 4.6 ^d | 238 to 241 | 31.4 | 4.3 ^d | 0 | 0 | 0 |  | selectivity index (SI) on SW620 ([4]; HFF versus SW620 cells): > 14; selectivity index (SI) on HeLa ([6]; HFF versus HeLa cells): > 14; solubility in water [11]: small aggregation

Continued, in another order:

Row | logKs [1] | binding [2] | logKs [3] | IC50 [4] [µM] | IC50 [5] [µM] | IC50 [6] [µM] | logKs (p(dAdT)2 (AT-DNA)) | logKs (poly A-poly U (AU-RNA)) | melting point [°C] | IC50 [8] [µM] | SMILES | logKs (ctDNA (calf thymus DNA)) | ΔTm (ctDNA) [°C] | ΔTm (poly(dAdT)2) [°C] | ΔTm (poly A-poly U) [°C] | IC50 [9] [nM] | also measured
6 | 5.5 |  |  | 35.6 | 4.84 | 23.8 | 5.5 |  | 192 to 196 | 29.1 | Cl.c1cnc2c(NCc3cn(-c4ccc(C5=NCCN5)cc4)nn3)cccc2c1 [Compound 8, 8-(((1-(4-(4,5-Dihydro-1H-imidazol-2-yl)phenyl)-1H-1,2,3-triazol-4-yl)methyl)amino)-quinoline hydrochloride] |  | 0 | 1 | 0 | 11700 | selectivity index (SI) ([9]; normal HFF fibroblasts versus tumor cells): 2
7 | 5.8 | yes | 5.1 | 2.69 | 9.07 | 10.3 | 5.8 | 5.1 | 229 to 232 | 25.2 | Cl.c1cnc2c(OCc3cn(-c4ccc(C5=NCCN5)cc4)nn3)cccc2c1 [Compound 9, 8-((1-(4-(4,5-Dihydro-1H-imidazol-2-yl)phenyl)-1H-1,2,3-triazol-4-yl)methyloxy)-quinoline hydrochloride] | 5.3 | 1 | 3 | 0 | < 10 | 
8 | 4.9 | yes | 4.9 | 4.77 | 0.28 | 2.13 | 4.9 | 4.9 | > 250 | 4.49 | Cl.O=c1ccc2ccc(OCc3cn(-c4ccc(C5=NCCN5)cc4)nn3)cc2o1 [Compound 11, 7-((1-(4-(4,5-Dihydro-1H-imidazol-2-yl)phenyl)-1H-1,2,3-triazol-4-yl)methyloxy)-coumarin hydrochloride] |  | 0 | 2 | 0 | 3140 | selectivity index (SI) on HepG2 ([5]; HFF versus HepG2 cells): 11
